Results published in patent publication US20080166427A1, “Method for Reducing Gastrointestinal Toxicity Due to the Administration of Tegafur” (Taiho Pharmaceutical Co., Ltd, priority 2004, published 2008).

Tests used:
clinical = format: in vivo, human
Method: The patient's diagnosis were CRC (7), breast (3), gastric (3) and other (4).
A total of 17 patients were entered in this pharmacokinetic study after informed consent.
Blood was sampled during 24 hours. […] Blood samples were taken by venipuncture in heparinized tubes of 9 ml and transported on ice for immediate processing.
Blood samples were centrifuged for 5 min at 4000 rpm and 4° C. The plasma was transferred to 2 eppendorf vials of 2 ml and stored at −20° C.
Analysis for tegafur and cyanuric acid was performed by validated HPLC assays, while the analysis of the other compounds was performed after derivatization by validated gas-chromatography-mass spectrometry methods as described previously [Peters G. J., Noordhuis P., Van Kuilenburg A. B. P., Schornagel J. H., Gall H., Turner S. L., Swart M. S., Voorn D., Van Gennip A. H., Wanders J., Holwerda U., Smid K., Giaccone G., Fumoleau P. and Van Groeningen C. […] Cancer Chemother. Pharmacol., 38: 1-12, 2003.].
The pharmacokinetic parameters for tegafur, 5FU, oxonic acid, cyan uric acid, and CDHP were calculated with the computer program WinNonLin (version 1.5). The data were analyzed using non-compartment modeling. The parameters that could be established were: time point of maximum observed concentration in plasma (Tmax), concentration in plasma corresponding to Tmax (Cmax), terminal half-life (t½), area under the plasma concentration versus time (C-t) curve (AUCall).

[1] = target: T1, dihydropyrimidine dehydrogenase (DPD) (Homo sapiens, UniProt Q12882); assay: Inhibition of dihydropyrimidine dehydrogenase; format: biochemical; settings: vs uracil
T1 sequence (Q12882 4-1025): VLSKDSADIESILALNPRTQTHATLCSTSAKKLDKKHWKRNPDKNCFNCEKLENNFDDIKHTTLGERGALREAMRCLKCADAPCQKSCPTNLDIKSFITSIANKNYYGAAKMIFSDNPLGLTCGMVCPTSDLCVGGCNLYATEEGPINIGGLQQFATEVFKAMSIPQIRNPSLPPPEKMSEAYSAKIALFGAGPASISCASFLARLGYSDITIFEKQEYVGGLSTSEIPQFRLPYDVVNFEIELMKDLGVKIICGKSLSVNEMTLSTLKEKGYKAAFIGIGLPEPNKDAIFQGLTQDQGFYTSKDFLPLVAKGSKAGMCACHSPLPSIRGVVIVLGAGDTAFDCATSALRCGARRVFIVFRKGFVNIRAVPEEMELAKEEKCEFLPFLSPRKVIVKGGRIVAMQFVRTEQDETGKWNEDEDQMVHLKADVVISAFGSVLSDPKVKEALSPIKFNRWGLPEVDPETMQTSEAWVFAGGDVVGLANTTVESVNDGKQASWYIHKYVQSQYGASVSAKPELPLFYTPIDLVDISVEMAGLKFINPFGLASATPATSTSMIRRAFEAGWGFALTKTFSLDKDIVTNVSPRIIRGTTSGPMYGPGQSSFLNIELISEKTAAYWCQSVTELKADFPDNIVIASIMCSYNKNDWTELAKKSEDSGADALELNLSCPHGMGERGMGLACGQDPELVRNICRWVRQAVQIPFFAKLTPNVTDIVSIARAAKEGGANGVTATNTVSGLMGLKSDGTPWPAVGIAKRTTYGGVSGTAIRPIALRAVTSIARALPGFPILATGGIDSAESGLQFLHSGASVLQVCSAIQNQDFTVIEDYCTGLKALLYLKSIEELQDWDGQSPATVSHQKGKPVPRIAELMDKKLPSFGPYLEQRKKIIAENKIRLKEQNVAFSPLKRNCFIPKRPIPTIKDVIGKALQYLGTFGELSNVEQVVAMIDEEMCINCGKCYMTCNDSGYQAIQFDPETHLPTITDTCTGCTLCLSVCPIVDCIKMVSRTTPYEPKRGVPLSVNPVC
From the text: It is gradually converted to 5-FU in vivo. • CDHP inhibits the catabolism of 5-FU by reversibly inhibiting the enzyme of dihydropyrimidine dehydrogenase (DPD). […] CDHP helps maintain effective blood and tumor concentrations of 5-FU for a prolonged period thus potentially achieving a similar therapeutic effect as protracted infusion of 5-FU. • Oxo blocks phosphorylation of 5-FU by orotate phosphoribosyltransferase (OPRT) in the gastrointestinal tract. […] Oxo is acid labile and thus its bioavailability is affected by food intake.

advanced gastric cancer = settings: in vivo
[2] = human, in vivo, po, 35 mg/m2, AUCall
[3] = human, in vivo, po, 35 mg/m2, Cmax
[4] = human, in vivo, po, 35 mg/m2, t½
[5] = human, in vivo, po, 35 mg/m2, Tmax
[6] = comparison fasting vs feeding group, S-1 35 mg/m^2

Row | SMILES | AUC (clinical; [2]) [ng·h/mL] | Cmax (clinical; [3]) [ng/mL] | half-life (clinical; [4]) [h] | Tmax, without breakfast vs after breakfast (clinical; in vivo) | t½, fasting vs feeding group (clinical; in vivo) | Tmax (clinical; [5]) [h] | other results
1 | O=c1[nH]c(=O)[nH]c(=O)[nH]1 [CA, cyanuric acid] |  |  |  |  |  |  | AUCall, fasting vs feeding group (clinical; [6]): higher values in the feeding group as compared to the fasting group; Cmax, fasting vs feeding group (clinical; [6]): not significantly different; Tmax, without breakfast vs after breakfast (clinical; [6]): faster Tmax without breakfast; t½, fasting vs feeding group (clinical; [6]): not significantly different; AUC (clinical; human, in vivo, po, 35 mg/m2, plasma, mean, S-1 35 mg/m^2 oral, fasted patients, read-out: AUCall): 517 ng·h/mL; Cmax (clinical; human, in vivo, po, 35 mg/m2, plasma, mean, S-1 35 mg/m^2 oral, fasted patients, read-out: Cmax): 118 ng/mL; Tmax (clinical; human, in vivo, po, 35 mg/m2, plasma, mean, S-1 35 mg/m^2 oral, fasted patients, read-out: Tmax): 1.3 h; half-life (clinical; human, in vivo, po, 35 mg/m2, plasma, mean, S-1 35 mg/m^2 oral, fasted patients, read-out: t½ (converted)): 5.3 h; AUC (clinical; human, in vivo, po, 35 mg/m2, plasma, mean, S-1 35 mg/m^2 oral, fed patients, read-out: AUCall): 1220 ng·h/mL; Cmax (clinical; human, in vivo, po, 35 mg/m2, plasma, mean, S-1 35 mg/m^2 oral, fed patients, read-out: Cmax): 160 ng/mL; Tmax (clinical; human, in vivo, po, 35 mg/m2, plasma, mean, S-1 35 mg/m^2 oral, fed patients, read-out: Tmax): 3.5 h; half-life (clinical; human, in vivo, po, 35 mg/m2, plasma, mean, S-1 35 mg/m^2 oral, fed patients, read-out: t½ (converted)): 6.7 h
2 | Oc1cc(O)c(Cl)cn1 [CDHP, 5-chloro-2,4-dihydroxypyridine] | 1920 | 464 | 4.5 | reached earlier without breakfast | no significant difference | 1.1 | potency of DPD inhibition relative to uracil [1]: 180 fold
3 | N.N.[Cl][Pt][Cl] [cisplatin] |  |  |  |  |  |  | recommended dose for the phase II portion (advanced gastric cancer): 60 mg/m^2

Now from value to compound, other results behind:

Row | AUC (clinical; [2]) [ng·h/mL] | Cmax (clinical; [3]) [ng/mL] | half-life (clinical; [4]) [h] | Tmax, without breakfast vs after breakfast (clinical; in vivo) | t½, fasting vs feeding group (clinical; in vivo) | Tmax (clinical; [5]) [h] | SMILES | other results
4 | 15700 | 2370 | 8.6 | earlier without breakfast | no significant difference |  | O=c1[nH]c(=O)n(C2CCCO2)cc1F (racemic) [FT, 5-Fluoro-1-[(RS)-tetrahydrofuran-2-yl]pyrimidine-2,4-(1H,3H)-dione, reference compound] | Tmax (clinical; human, in vivo, po, 35 mg/m2): 0.6 h
5 | 1100 | 210 | 2.2 | reached earlier without breakfast | no significant difference | 1.8 | O=c1[nH]cc(F)c(=O)[nH]1 [5-FU, 5-fluorouracil, reference compound] | 
6 |  |  | 3.9 | significantly faster without breakfast | not significantly different | 1.6 | O=C(O)c1nc(=O)[nH]c(=O)[nH]1 [Oxo, potassium oxonate] | effect of food on bioavailability (clinical; human, in vivo, po): profound effect; AUCall (clinical; human, in vivo, po, 35 mg/m2): 808.7 ng·h/mL; Cmax (clinical; human, in vivo, po, 35 mg/m2): 158.1 ng/mL
